Experimental data from ChEMBL document CHEMBL1152503, “Quantitative high-throughput screening identifies inhibitors of anthrax-induced cell death” (Bioorg Med Chem, 2009).
Calls of active or inactive are those of the source. The rule behind the calls is not given here.

Tests used:
CHO [1] = assay: Cytoprotective activity against diphtheria toxin-induced cell death in CHO cells assessed as cell viability at 10 uM by MTT reduction assay; format: functional; details: Cricetulus griseus, read-out: Activity
RAW264.7 [2] = assay: Cytoprotective activity against anthrax toxin lethal factor/protective antigen-induced cell death in mouse RAW264.7 cells assessed as cell viability at 10 uM by MTT reduction assay; format: functional, cell-based
CHO [3] = assay: Cytoprotective activity against anthrax fusion toxin FP59-induced cell death in CHO cells assessed as cell viability by MTT reduction assay; format: functional, cell-based; details: Cricetulus griseus
CHO [4] = assay: Cytoprotective activity against diphtheria toxin-induced cell death in CHO cells assessed as cell viability at 5 uM by MTT reduction assay; format: functional; details: Cricetulus griseus, read-out: Activity
RAW264.7 [5] = assay: Cytoprotective activity against anthrax lethal toxin-induced cell death in mouse RAW264.7 cells assessed as cell viability at 2 uM preincubated for 45 mins with lethal toxin measured after 1 hr by MTT reduction assay; format: functional, cell-based
RAW264.7 [6] = assay: Cytoprotective activity against anthrax toxin lethal factor-induced cell death in mouse RAW264.7 cells assessed as cell viability at 3 uM by MTT reduction assay; format: functional, cell-based
RAW264.7 [7] = assay: Cytotoxicity against mouse RAW264.7 cells at 10 uM by MTT assay; format: cell-based; details: raw264.7, 10 µM
[8] = biological target: Replicase polyprotein 1ab (Severe acute respiratory syndrome-related coronavirus, UniProt P0C6X7); assay: Inhibition of SARS Co-V 3CL protease

Cc1ccc2oc(=O)c3cnn(CC(=O)Nc4ccccc4N4CCN(C)CC4)c3c2c1
viability at 10 µM (CHO [1]): 75%
Activity (RAW264.7 [2]): Active
Activity (CHO [3]): Active

Cc1ccnc(-n2sc3ccccc3c2=O)n1
Activity (RAW264.7 [2]): inactive

N=C1Sc2ccccc2C2=NCCCN12
Activity (RAW264.7 [2]): inactive

COc1cc2c(O)c3c(c(-c4ccc5c(c4)OCO5)c2cc1OC)C(=O)OC3 [DIPHYLLIN]
viability at 5 µM (CHO [4]): 100%
Activity (RAW264.7 [5]): Active
Activity (RAW264.7 [6]): Active
Activity (CHO [3]): Active

CN(C)CCCn1cc(C2=C(c3c[nH]c4ccccc34)C(=O)NC2=O)c2ccccc21 [GF-109203]
viability at 10 µM (CHO [1]): 60%
Activity (RAW264.7 [7]): Toxic

O=C(Nc1ccc([N+](=O)[O-])cc1Cl)c1cc(Cl)ccc1O [NICLOSAMIDE]
viability at 5 µM (CHO [4]): 100%
IC50 [8]: 40 µM
Activity (RAW264.7 [2]): Active
Activity (CHO [3]): Active
